In general, MIC refers to the lowest concentration that inhibits growth of the organism. A low value points to greater potency.

Converted amounts (≈) assume the structure as drawn. “And” between values parts separate entries of the source, which are not always exact repeats. Equal values may be shown once.

Some test systems named below: Staphylococcus aureus MR; Escherichia coli 45849; Escherichia coli BL21AI; Escherichia coli D31; Escherichia coli ESBL 4; Escherichia coli ESBL; Escherichia coli UB1005; Citrobacter freundii; Klebsiella pneumoniae.
Common to all, as to test: ≥ marks a high value that may be exact or a test limit, other limits are often not marked, values filed in µg/mL are converted to µM
Test [1] deals with Staphylococcus aureus 113.
In test [2] the test system is Staphylococcus aureus 725.
In test [3] the test system is Staphylococcus aureus 794.
Test [4] has as its system Staphylococcus aureus 936.
Test [5] concerns Staphylococcus aureus ATCC 25923.
The subject of test [6] is Staphylococcus aureus ATCC 33591.
Test [7] has as its system Klebsiella pneumoniae 123132.
Test [8] deals with Klebsiella pneumoniae K6 ATCC 700603.
Test [9] concerns Salmonella enterica subsp. enterica serovar Typhi S5.
Test [10] relates to Salmonella enterica subsp. enterica serovar Typhimurium ATCC 700408.
For test [11], the system named is Escherichia coli ATCC 11775.
Test [12] has as its system Escherichia coli ATCC 25922.
The subject of test [13] is Escherichia coli ATCC 35218.
In test [14] the test system is Escherichia coli ATCC 43827.
For test [15], the system named is Pseudomonas aeruginosa ATCC 27853.
Test [16] relates to Escherichia coli ATCC 11229.
For test [17], the system named is Klebsiella pneumoniae ATCC 13866.
The subject of test [18] is Salmonella enterica serovar Typhimurium.
In test [19] the test system is Staphylococcus aureus ATCC 29213.
For test [20], the system named is Staphylococcus epidermidis ATCC 12228.
In test [21] the test system is Aspergillus oryzae NBRC 100959.
The subject of test [22] is Candida viswanathii NBRC 10321.
The test system of test [23] is Escherichia coli NBRC 3972.
The test system of test [24] is Micrococcus luteus NBRC 3333.
Test [25] deals with Pseudomonas putida NBRC 100650.
In test [26] the test system is Staphylococcus epidermidis NBRC 12993.
The test system of test [27] is Lacticaseibacillus rhamnosus 1.0385.
Test [28] has as its system Lacticaseibacillus rhamnosus 1.0386.
In test [29] the test system is Lacticaseibacillus rhamnosus 1.0911.
Test [30] deals with Lacticaseibacillus rhamnosus 1.0925.
Test [31] has as its system Lacticaseibacillus rhamnosus 7469.
In test [32] the test system is Lactiplantibacillus plantarum 8014.
The subject of test [33] is Staphylococcus aureus ATCC 43300.
Test [34] deals with Salmonella enterica subsp. enterica serovar Paratyphi A.
Test [35] has as its system Staphylococcus haemolyticus.

Regarding `CC(C)C[C@H](NC(=O)[C@@H](NC(=O)[C@H](CCCCN)NC(=O)[C@H](CCCCN)NC(=O)[C@H](Cc1c[nH]c2ccccc12)NC(=O)[C@H](CC(C)C)NC(=O)[C@H](CCCN=C(N)N)NC(=O)[C@H](CC(C)C)NC(=O)[C@H](C)NC(=O)[C@H](CCCCN)NC(=O)CNC(=O)[C@H](CC(C)C)NC(=O)[C@H](CC(C)C)NC(=O)[C@H](CO)NC(=O)CNC(=O)[C@H](Cc1ccccc1)NC(=O)CN)C(C)C)C(N)=O` [GFGSLLGKALRLWKKVL], the MIC is 4.24 µM (≈ 8 µg/mL) in test [1]; 4.24 µM (≈ 8 µg/mL) in [2]; 4.24 µM (≈ 8 µg/mL) in test [3]; 4.24 µM (≈ 8 µg/mL) in [4]; 2.12 µM and 4.24 µM in [5]; 4.24 µM (≈ 8 µg/mL) in test [6]. In addition, in the test with Staphylococcus aureus MR, the MIC amounted to 4.24 µM (≈ 8 µg/mL).
On to `CC[C@H](C)[C@H](NC(=O)[C@H](Cc1ccc(O)cc1)NC(=O)[C@@H](NC(=O)[C@@H]1CCCN1C(=O)[C@H](CCCN=C(N)N)NC(=O)[C@H](CC(N)=O)NC(=O)[C@H](CC(N)=O)NC(=O)CN)C(C)C)C(=O)N1CCC[C@H]1C(=O)N[C@@H](CCC(N)=O)C(=O)N1CCC[C@H]1C(=O)N[C@@H](CCCN=C(N)N)C(=O)N1CCC[C@H]1C(=O)N1CCC[C@H]1C(=O)N[C@@H](Cc1cnc[nH]1)C(=O)N1CCC[C@H]1C(=O)N[C@@H](CCCN=C(N)N)C(=O)N[C@@H](CC(C)C)C(N)=O` [GNNRPVYIPQPRPPHPRL], for which the minimum inhibitory concentration (MIC) stood at 0.237 µM (≈ 0.5 µg/mL) against Escherichia coli 45849; 0.237 µM (≈ 0.5 µg/mL) with Escherichia coli BL21AI; 0.474 µM (≈ 1 µg/mL) in the test with Escherichia coli D31; 7.59 µM (≈ 16 µg/mL) in [7]; 7.59 µM (≈ 16 µg/mL) in [8]; 0.0593 µM (≈ 0.125 µg/mL) in [9]. The MIC in test [10] was found to be 0.0593 µM (≈ 0.125 µg/mL).
Turning to `CC[C@H](C)[C@H](NC(=O)[C@H](Cc1ccc(O)cc1)NC(=O)[C@H](CCC(N)=O)NC(=O)[C@H](CC(C)C)NC(=O)[C@H](C)NC(=O)[C@H](CCCCN)NC(=O)[C@H](CCCCN)NC(=O)[C@H](CCSC)NC(=O)[C@H](CCCCN)NC(=O)[C@H](CCCCN)NC(=O)[C@@H](N)CCCCN)C(=O)N[C@@H](CCCCN)C(=O)N[C@@H](CC(C)C)C(=O)N[C@@H](CC(C)C)C(=O)N[C@@H](CCCCN)C(=O)N[C@@H](CCC(=O)O)C(N)=O` [KKKMKKALQYIKLLKE], the MIC is at least 100 µM in test [11]; 25 µM (≈ 49.7 µg/mL) in [12]; 12.5 µM (≈ 24.9 µg/mL) in [13]; 6 µM (≈ 11.9 µg/mL) in test [14]; at least 100 µM in the test on Escherichia coli ESBL 4; at least 50 µM against Escherichia coli ESBL. Further, the minimal inhibitory concentration (MIC) in test [15] is over 100 µM.
`CC[C@H](C)[C@H](NC(=O)[C@H](CCCN=C(N)N)NC(=O)[C@@H](N)CCSC)C(=O)NCC(=O)N[C@@H](CC(C)C)C(=O)N[C@@H](CCCN=C(N)N)C(=O)N[C@@H](Cc1ccccc1)C(=O)N[C@H](C(=O)N[C@@H](CC(C)C)C(=O)N[C@@H](CCSC)C(=O)O)C(C)C` [MRIGLRFVLM]: the MIC in [16] is 12.9 µM (≈ 16 µg/mL); in test [13], at least 104 µM; in test [17], 25.9 µM (≈ 32 µg/mL); in test [15], 12.9 µM (≈ 16 µg/mL); in [18] it was at least 104 µM; in test [19] it was 104 µM (≈ 128 µg/mL). The results for the MIC in [6] and in test [20] were at least 104 µM and 12.9 µM (≈ 16 µg/mL), respectively.
Consider `CC[C@H](C)[C@H](NC(=O)[C@H](CCCCN)NC(=O)[C@@H](N)CCCN=C(N)N)C(=O)N[C@@H](CCCCN)C(=O)N[C@@H](CCCN=C(N)N)C(=O)N[C@@H](Cc1ccc(O)cc1)C(=O)N[C@@H](CC(C)C)C(=O)N[C@@H](CCCN=C(N)N)C(=O)N[C@@H](CCCN=C(N)N)C(=O)N[C@@H](CCSC)C(=O)N[C@@H](CCCCN)C(=O)O` [RKIKRYLRRMK], for which the MIC is at least 129 µM in test [21]; at least 258 µM in test [22]; at least 64.6 µM in [23]; at least 129 µM in test [24]; at least 258 µM in test [25]; at least 64.6 µM in [26].
Regarding `NC(=O)C[C@H](NC(=O)[C@H](Cc1c[nH]c2ccccc12)NC(=O)[C@H](Cc1c[nH]c2ccccc12)NC(=O)[C@H](Cc1c[nH]c2ccccc12)NC(=O)[C@H](CC(N)=O)NC(=O)[C@H](Cc1c[nH]c2ccccc12)NC(=O)[C@H](CCCN=C(N)N)NC(=O)[C@@H](N)CCCN=C(N)N)C(=O)N[C@@H](Cc1c[nH]c2ccccc12)C(=O)N[C@@H](CCCN=C(N)N)C(=O)N[C@@H](CCCN=C(N)N)C(N)=O` [RRWNWWWNWRR], the MIC in [12] is over 64 µM; in the test with Escherichia coli UB1005, at least 64 µM; in test [27], at least 64 µM; in [28], at least 64 µM; in [29], at least 64 µM; in [30], at least 64 µM. The MIC is at least 64 µM in [31]; at least 64 µM in test [32]; over 64 µM in test [15]; over 64 µM in test [19]; over 64 µM in test [33]; over 64 µM in test [20].
For `CC(C)C[C@H](NC(=O)[C@H](CCCCN)NC(=O)[C@H](CC(C)C)NC(=O)[C@H](CCCCN)NC(=O)[C@H](CS)NC(=O)[C@H](CC(C)C)NC(=O)[C@H](Cc1c[nH]c2ccccc12)NC(=O)CNC(=O)[C@H](CCCCN)NC(=O)[C@H](CS)NC(=O)[C@@H]1CCCN1C(=O)[C@H](CCCCN)NC(=O)[C@H](CCCN=C(N)N)NC(=O)[C@H](CCCN=C(N)N)NC(=O)[C@H](CO)NC(=O)[C@@H](N)CO)C(=O)N[C@@H](CCCN=C(N)N)C(=O)O` [SSRRKPCKGWLCKLKLR], the MIC worked out at 2.91 µM (≈ 6 µg/mL) in the test with Citrobacter freundii, 2.06 µM (≈ 4.24 µg/mL) against Klebsiella pneumoniae, 5.83 µM (≈ 12 µg/mL) in test [34] and 1.46 µM (≈ 3 µg/mL) in [35].

The record behind these values is DBAASP.
